In PubChem BioAssay AID180 (DTP/NCI, 2004):
Several values for one entry are separate records, joined by “and”; a condition that tells them apart may be missing. Equal values may be shown once.

Test system: BDF1 mice, Adenocarcinoma 755 s.c., tumor weight T/C
Test: NCI In Vivo Anticancer Drug Screen. Data for tumor model Adenocarcinoma 755 (subcutaneous) in B6D2F1 (BDF1) mice
Details: endpoint: mean tumor weight, higher = larger tumour
In short: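 Tumor-bearing mice receive test compound while controls get vehicle alone. Antitumor effect is scored from survival or tumor dimensions as a T/C quotient.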

Structure (SMILES): CS(=O)(=O)OCCCCOS(C)(=O)=O
- T/C (dose: 3.75 mg/kg/injection, schedule: Q03DX004 (ip), vehicle: saline): 111 % of control
- T/C (dose: 5.0 mg/kg/injection, schedule: Q#A X022 (ip), vehicle: saline): 54 % of control
- T/C (dose: 6.63 mg/kg/injection, schedule: Q01DX011 (ip), vehicle: carboxymethylcellulose (CMC)): 95 % of control
- T/C (dose: 6.66 mg/kg/injection, schedule: Q01DX011 (ip), vehicle: carboxymethylcellulose (CMC)): 99 % of control
- T/C (dose: 9.36 mg/kg/injection, schedule: Q01DX011 (ip), vehicle: carboxymethylcellulose (CMC)): 66 % of control
- T/C (dose: 10.0 mg/kg/injection, schedule: Q01DX006 (iv), vehicle: saline): 117 % of control
- T/C (dose: 10.0 mg/kg/injection, schedule: Q01DX011 (im), vehicle: saline): 36 % of control
- T/C (dose: 10.0 mg/kg/injection, schedule: Q01DX011 (ip), vehicle: carboxymethylcellulose (CMC)): 62 % of control
- T/C (dose: 10.0 mg/kg/injection, schedule: Q01DX011 (ip), vehicle: saline): 71 % of control
- T/C (dose: 10.0 mg/kg/injection, schedule: Q01DX011 (oral), vehicle: saline): 81 % of control
- T/C (dose: 10.0 mg/kg/injection, schedule: Q01DX011 (sc), vehicle: saline): 35 % of control
- T/C (dose: 10.0 mg/kg/injection, schedule: Q#A X022 (ip), vehicle: saline): 80 % of control
- T/C (dose: 12.5 mg/kg/injection, schedule: Q01DX011 (ip), vehicle: methylcellulose (MC)): 119 % of control
- T/C (dose: 13.25 mg/kg/injection, schedule: Q01DX011 (ip), vehicle: carboxymethylcellulose (CMC)): 101 % of control
- T/C (dose: 15.0 mg/kg/injection, schedule: Q03DX004 (ip), vehicle: saline): 87 % of control
- T/C (dose: 16.75 mg/kg/injection, schedule: Q01DX011 (ip), vehicle: carboxymethylcellulose (CMC)): 68 % of control
- T/C (dose: 17.5 mg/kg/injection, schedule: Q01DX011 (ip), vehicle: carboxymethylcellulose (CMC)): 106 % of control
- T/C (dose: 17.87 mg/kg/injection, schedule: Q01DX011 (ip), vehicle: carboxymethylcellulose (CMC)): 77 % of control
- T/C (dose: 18.73 mg/kg/injection, schedule: Q01DX011 (ip), vehicle: carboxymethylcellulose (CMC)): 76 % of control
- T/C (dose: 20.0 mg/kg/injection, schedule: Q01DX006 (iv), vehicle: saline): 100 % of control
- T/C (dose: 20.0 mg/kg/injection, schedule: Q01DX011 (im), vehicle: saline): 76 % of control
- T/C (dose: 20.0 mg/kg/injection, schedule: Q01DX011 (ip), vehicle: carboxymethylcellulose (CMC)): 76 % of control
- T/C (dose: 20.0 mg/kg/injection, schedule: Q01DX011 (oral), vehicle: saline): 49 % of control
- T/C (dose: 20.0 mg/kg/injection, schedule: Q01DX011 (sc), vehicle: saline): 104 % of control
- T/C (dose: 20.0 mg/kg/injection, schedule: Q#A X022 (ip), vehicle: saline): 39 % of control
- T/C (dose: 21.2 mg/kg/injection, schedule: Q01DX011 (ip), vehicle: carboxymethylcellulose (CMC)): 91 % of control
- T/C (dose: 21.32 mg/kg/injection, schedule: Q01DX011 (ip), vehicle: carboxymethylcellulose (CMC)): 81 % of control
- T/C (dose: 25.0 mg/kg/injection, schedule: Q01DX011 (ip), vehicle: methylcellulose (MC)): 77 % of control
- T/C (dose: 26.5 mg/kg/injection, schedule: Q01DX011 (ip), vehicle: carboxymethylcellulose (CMC)): 26 % of control and 50 % of control
- T/C (dose: 26.65 mg/kg/injection, schedule: Q01DX011 (ip), vehicle: carboxymethylcellulose (CMC)): 53 % of control and 63 % of control
- T/C (dose: 33.5 mg/kg/injection, schedule: Q01DX011 (ip), vehicle: carboxymethylcellulose (CMC)): 83 % of control
- T/C (dose: 35.0 mg/kg/injection, schedule: Q01DX011 (ip), vehicle: carboxymethylcellulose (CMC)): 98 % of control
- T/C (dose: 35.33 mg/kg/injection, schedule: Q01DX011 (ip), vehicle: carboxymethylcellulose (CMC)): 34 % of control
- T/C (dose: 35.5 mg/kg/injection, schedule: Q01DX011 (ip), vehicle: carboxymethylcellulose (CMC)): 38 % of control
- T/C (dose: 35.75 mg/kg/injection, schedule: Q01DX011 (ip), vehicle: carboxymethylcellulose (CMC)): 81 % of control
- T/C (dose: 37.45 mg/kg/injection, schedule: Q01DX011 (ip), vehicle: carboxymethylcellulose (CMC)): 73 % of control
- T/C (dose: 40.0 mg/kg/injection, schedule: Q01DX006 (iv), vehicle: saline): 84 % of control
- T/C (dose: 40.0 mg/kg/injection, schedule: Q01DX011 (im), vehicle: saline): 17 % of control
- T/C (dose: 40.0 mg/kg/injection, schedule: Q01DX011 (ip), vehicle: carboxymethylcellulose (CMC)): 10 % of control
- T/C (dose: 40.0 mg/kg/injection, schedule: Q01DX011 (oral), vehicle: saline): 30 % of control and 49 % of control
- T/C (dose: 40.0 mg/kg/injection, schedule: Q01DX011 (sc), vehicle: saline): 41 % of control and 45 % of control
- T/C (dose: 40.0 mg/kg/injection, schedule: Q#A X022 (ip), vehicle: saline): 17 % of control
- T/C (dose: 50.0 mg/kg/injection, schedule: Q01DX011 (ip), vehicle: methylcellulose (MC)): 30 % of control
- T/C (dose: 53.0 mg/kg/injection, schedule: Q01DX011 (ip), vehicle: carboxymethylcellulose (CMC)): 3 % of control
- T/C (dose: 53.3 mg/kg/injection, schedule: Q01DX011 (ip), vehicle: carboxymethylcellulose (CMC)): 1 % of control
- T/C (dose: 57.96 mg/kg/injection, schedule: Q01DX011 (ip), vehicle: carboxymethylcellulose (CMC)): 113 % of control
- T/C (dose: 60.0 mg/kg/injection, schedule: Q03DX004 (ip), vehicle: saline): 67 % of control and 71 % of control
- T/C (dose: 67.0 mg/kg/injection, schedule: Q01DX011 (ip), vehicle: carboxymethylcellulose (CMC)): 37 % of control
- T/C (dose: 70.0 mg/kg/injection, schedule: Q01DX001 (ip), vehicle: saline): 90 % of control
- T/C (dose: 70.0 mg/kg/injection, schedule: Q01DX011 (ip), vehicle: carboxymethylcellulose (CMC)): 49 % of control
- T/C (dose: 70.0 mg/kg/injection, schedule: Q07DX002 (ip), vehicle: saline): 99 % of control
- T/C (dose: 71.5 mg/kg/injection, schedule: Q01DX011 (ip), vehicle: carboxymethylcellulose (CMC)): 58 % of control
- T/C (dose: 72.45 mg/kg/injection, schedule: Q01DX011 (ip), vehicle: carboxymethylcellulose (CMC)): 29 % of control
- T/C (dose: 80.0 mg/kg/injection, schedule: Q01DX006 (iv), vehicle: saline): 88 % of control
- T/C (dose: 80.0 mg/kg/injection, schedule: Q01DX011 (oral), vehicle: saline): 17 % of control and 27 % of control
- T/C (dose: 96.6 mg/kg/injection, schedule: Q01DX011 (ip), vehicle: carboxymethylcellulose (CMC)): 19 % of control
- T/C (dose: 120.0 mg/kg/injection, schedule: Q03DX004 (ip), vehicle: saline): 39 % of control and 62 % of control
- T/C (dose: 140.0 mg/kg/injection, schedule: Q01DX001 (ip), vehicle: saline): 98 % of control and 111 % of control
- T/C (dose: 140.0 mg/kg/injection, schedule: Q07DX002 (ip), vehicle: saline): 91 % of control
- T/C (dose: 160.0 mg/kg/injection, schedule: Q01DX011 (ip), vehicle: saline): 14 % of control
- T/C (dose: 160.0 mg/kg/injection, schedule: Q01DX011 (oral), vehicle: saline): 41 % of control
- T/C (dose: 240.0 mg/kg/injection, schedule: Q03DX004 (ip), vehicle: saline): 24 % of control and 38 % of control
- T/C (dose: 280.0 mg/kg/injection, schedule: Q07DX002 (ip), vehicle: saline): 77 % of control
- T/C (dose: 320.0 mg/kg/injection, schedule: Q01DX011 (oral), vehicle: saline): 9 % of control
- T/C (dose: 1120.0 mg/kg/injection, schedule: Q01DX001 (ip), vehicle: saline): 58 % of control

Structure (SMILES): O=c1[nH]cc(C(F)(F)F)c(=O)[nH]1
- T/C (dose: 50.0 mg/kg/injection, schedule: Q01DX011 (ip), vehicle: saline): 53 % of control
- T/C (dose: 100.0 mg/kg/injection, schedule: Q01DX011 (ip), vehicle: saline): 65 % of control
- T/C (dose: 200.0 mg/kg/injection, schedule: Q01DX011 (ip), vehicle: saline): 38 % of control and 57 % of control
- T/C (dose: 300.0 mg/kg/injection, schedule: Q01DX011 (ip), vehicle: saline): 40 % of control and 56 % of control
- T/C (dose: 400.0 mg/kg/injection, schedule: Q01DX011 (ip), vehicle: saline): 32 % of control and 34 % of control
- T/C (dose: 500.0 mg/kg/injection, schedule: Q01DX011 (ip), vehicle: saline): 56 % of control and 65 % of control
- T/C (dose: 600.0 mg/kg/injection, schedule: Q01DX011 (ip), vehicle: saline): 37 % of control
